According to patent publication US20080318908A1, “USE OF GABA AND GABAB AGONISTS” (TRUSTEES OF TUFTS COLLEGE, priority 2002, published 2008):

How the values were obtained:
Type in all cases: cell-based, rat
islets [1] = assay: Islet total DNA content, Cyquant fluorescence assay
Method: To examine the potential function of GABAB receptor signaling in islet tissue, islets were enzymatically isolated from exocrine pancreas and studied in vitro. Islets were size-selected for these studies because of our observation that small islets (<150 μm diameter) express GABAB receptors more abundantly. Islets (equivalent to ˜10,000 cells per well of a 96 well culture plate) were incubated for 45 minutes with (or without) 100 μM GABA, washed once with growth medium M199, maintained for 4 hours at 37° C., and subsequently analyzed for total DNA content using a Cyquant (Molecular Probes) fluorescence assay. […] Large islets, by contrast, were much less responsive to GABA; increasing only by 15±4.5% in the same time period. The growth-promoting effect of GABA was mimicked by the selective GABAB receptor agonist, S-baclofen and inhibited with either 2OH-saclofen (a selective inhibitor of GABAB receptors) or the N-terminal antibody to the GABAB receptor (FIG. 4A).
To further evaluate the interactions between glucose and GABAB receptor activation, we measured GABA-mediated proliferation over a range of glucose concentrations.

islets [2] = assay: Glucose-stimulated proliferation in islets (DNA content)
Method: Others have shown that islet mass can increase by as much as 50% in just 96 hours of glucose infusion in vivo, an effect that results from increases in both cell size and cell number^15. Given that metabolism of glucose alone promotes secretion from β cells, we tested the hypothesis that glucose-stimulated proliferation in islets involves the activation of GABAB receptors by GABA released during glucose application. Islets were exposed to 5.6 mM glucose (a maximal proliferative stimulus in human islets) for 4.75 hours in the presence or absence of 2OH-saclofen or the GBR1 N-terminal antibody. Glucose promoted a small, but significant, 7±1% stimulation of control islets during this time (FIG. 5A).

spleen cells = assay: DNA content of dissociated cultured spleen, Cyquant assay; conditions: 100 micromolar for 45 minutes, then four hours in fresh medium at 37°
Method: An experiment to test the ability of GABA and the GABAB receptor agonist to stimulate growth of other tissues was undertaken. Rat spleen was mechanically dissociated in trypsin, washed, and plated identical to the experiments using rat islets, described above. The dissociated tissue was cultured in the presence of 100 micromolar GABA or baclofen for 45 minutes and compared to cultured but untreated dissociated spleen. After 45 minutes the media was changed and the tissue incubated in fresh medium for four hours at 37°. DNA measurements were made by the Cyquant assay by Molecular Probes.

islets [3] = assay: BrdU labeling of dividing islet cells; conditions: 4.75 hours; GABA-treated versus control islets
Method: To identify which cells in islets underlie the increase in DNA synthesis, cells treated with GABA were exposed to BrdU, to label the dividing cells, and compared to control cells. […] Given the brief incorporation period (4 hours following GABA exposure), such profiles imply that the responsive cells are likely to be synchronized in S phase.

islets [4] = assay: [3H]thymidine incorporation in islets; conditions: label present throughout the 4.75 hour experimental period
Method: [^3H]thymidine incorporation was employed as an alternative assay for DNA synthesis, with similar results to those of the fluorescence assay. The labeled nucleotide was added to the culture medium and was present throughout the 4.75 hour experimental period. GABA, and the agonist baclofen, acting via GABAB receptors produced a respective 143±19% and 115±4% increase in [^3H]thymidine incorporation (FIG. 4B).

NCC(O)(CS(=O)(=O)O)c1ccc(Cl)cc1 (stereo not shown) [2OH-saclofen, reference compound] was tested, and the “effect on growth-promoting effect of GABA” value (islets [1]; isolated islets with GABA, FIG. 4A, 100 μM antagonist or antibody 1:1000) was “inhibited” and the “DNA, % of DNA content measured at the beginning of the incubation period” value (islets [2]; 5.6 mM glucose for 4.75 hours in the presence of 2OH-saclofen) was 92±4%.

With NCCCC(=O)O [GABA, 4-aminobutanoic acid] the “GABA-stimulated DNA synthesis at moderate glucose” value (islets [1]; 45 min exposure to 100 μM GABA, 5.6 mM glucose) was “peaked at moderate glucose concentrations”, the “GABA-stimulated DNA synthesis at higher glucose” value (islets [1]; 45 min exposure to 100 μM GABA, 16.7 mM glucose) was “suppressed the stimulatory effect of GABA” and the “increase in DNA synthesis, large islets” value (islets [1]; large islets, 100 μM GABA 45 minutes, same 4.75 hour period) was 15±4.5%. The “increase in DNA synthesis, small islets” value (islets [1]; small islets (<150 μm diameter), 100 μM GABA 45 minutes, then 4 hours at 37° C., 4.75 hours total) was 45%, the “DNA content of cultured spleen cells versus untreated” value (spleen cells) was “promoted an increase in the DNA content” and the BrdU incorporation (islets [3]) was “detectable BrdU incorporation”. The “increase in [3H]thymidine incorporation” value (islets [4]) was 143±19%.

OC[C@H]1OC(O)[C@H](O)[C@@H](O)[C@@H]1O (stereo partly shown) [Glucose] was tested, and the “stimulation of control islets (DNA)” value (islets [2]; 5.6 mM glucose for 4.75 hours) was 7±1%.

In the case of NC[C@@H](CC(=O)O)c1ccc(Cl)cc1 [S-baclofen, reference compound], the “growth-promoting effect of GABA mimicked by agonist” value (islets [1]; isolated islets, FIG. 4A, 100 μM) is reported as “mimicked”.

For NCC(CC(=O)O)c1ccc(Cl)cc1 (stereo not shown) [baclofen, 4-amino-3-(4-chlorophenyl)butanoic acid, reference compound], the “DNA content of cultured spleen cells versus untreated” value (spleen cells) was “promoted an increase in the DNA content” and the “increase in [3H]thymidine incorporation” value (islets [4]) was 115±4%.
